Data from the Kinase Knowledgebase extract (Sharma et al. 2016).

Molecular target: EGFR (human) (UniProt P00533)
Sequence (P00533 whole entry, looked up): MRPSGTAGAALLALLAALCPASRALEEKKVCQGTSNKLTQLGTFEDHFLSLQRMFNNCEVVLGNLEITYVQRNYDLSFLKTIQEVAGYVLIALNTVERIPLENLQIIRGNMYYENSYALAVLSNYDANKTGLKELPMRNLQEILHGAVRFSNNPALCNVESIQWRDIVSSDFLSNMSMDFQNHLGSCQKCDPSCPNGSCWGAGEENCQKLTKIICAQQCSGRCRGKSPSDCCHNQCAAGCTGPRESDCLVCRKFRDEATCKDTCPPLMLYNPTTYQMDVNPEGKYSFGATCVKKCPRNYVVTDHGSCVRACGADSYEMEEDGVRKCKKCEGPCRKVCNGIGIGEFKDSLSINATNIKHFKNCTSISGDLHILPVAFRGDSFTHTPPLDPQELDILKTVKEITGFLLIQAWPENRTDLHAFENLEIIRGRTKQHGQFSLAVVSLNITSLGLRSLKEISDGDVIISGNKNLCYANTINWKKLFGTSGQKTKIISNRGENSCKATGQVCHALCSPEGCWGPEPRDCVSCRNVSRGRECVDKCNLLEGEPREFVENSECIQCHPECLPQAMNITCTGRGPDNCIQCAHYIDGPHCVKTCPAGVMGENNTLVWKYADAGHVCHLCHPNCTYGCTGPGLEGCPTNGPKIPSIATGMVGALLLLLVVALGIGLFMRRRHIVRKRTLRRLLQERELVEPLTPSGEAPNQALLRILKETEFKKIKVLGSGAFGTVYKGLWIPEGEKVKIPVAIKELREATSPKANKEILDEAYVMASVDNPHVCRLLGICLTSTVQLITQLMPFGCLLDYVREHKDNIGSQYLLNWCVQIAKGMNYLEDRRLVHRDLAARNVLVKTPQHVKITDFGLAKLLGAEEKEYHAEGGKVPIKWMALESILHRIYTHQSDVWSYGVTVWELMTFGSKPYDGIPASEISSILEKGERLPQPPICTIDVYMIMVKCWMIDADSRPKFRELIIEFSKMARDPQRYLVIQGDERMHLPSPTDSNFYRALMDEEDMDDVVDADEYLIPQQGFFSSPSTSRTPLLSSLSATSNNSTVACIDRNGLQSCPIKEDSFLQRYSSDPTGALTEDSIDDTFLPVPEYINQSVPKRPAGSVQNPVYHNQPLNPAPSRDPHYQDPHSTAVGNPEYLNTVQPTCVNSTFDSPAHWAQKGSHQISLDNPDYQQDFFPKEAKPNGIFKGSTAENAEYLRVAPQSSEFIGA

IC50 [µM]	Compound
> 10	COc1cc2ncnc(Nc3ccc(NC(=O)Nc4ccc(F)c(Cl)c4)cc3)c2cc1OC
> 10	CCOC(=O)Nc1ccc(Nc2ncnc3cc(OC)c(OCCN(CC)CC)cc23)cc1C
> 10	COc1ccc(NC(=O)Nc2ccc(Oc3ncnc4cc(OC)c(OC)cc34)cc2)cc1
> 10	CCOC(=O)Nc1ccc(Nc2ncnc3cc(OC)c(OC)cc23)cc1
> 10	COc1cc2ncnc(Oc3ccc(NC(=O)Nc4ccccc4)cc3)c2cc1OC
> 10	COc1cc2ncnc(Oc3ccc(NC(=O)NC4CCCCC4)cc3)c2cc1OC
> 10	COc1cc2ncnc(Oc3ccc(NC(=O)Nc4ccc(F)cc4F)cc3)c2cc1OC
> 10	CCCC(=O)Nc1ccc(Nc2ncnc3cc(OC)c(OC)cc23)cc1C
> 10	CCOC(=O)Nc1ccc(Oc2ncnc3cc(OC)c(OC)cc23)cc1
> 10	COC(=O)Nc1ccc(Oc2ncnc3cc(OC)c(OC)cc23)cc1
> 10	COc1cc2ncnc(Oc3ccc(NC(=O)Nc4ccc(Br)cc4)cc3)c2cc1OC
> 10	CCOC(=O)Nc1ccc(Nc2ncnc3cc(OCCN(CC)CC)c(OC)cc23)cc1C
> 10	CCCCNC(=O)Nc1ccc(Oc2ncnc3cc(OC)c(OC)cc23)cc1
> 10	COc1ccc(NC(=O)Nc2cccc(Oc3ncnc4cc(OC)c(OC)cc34)c2)cc1
> 10	COc1cc2ncnc(Oc3cccc(NC(=O)Nc4ccccc4)c3)c2cc1OC
> 10	COc1cc2ncnc(Oc3ccc(F)c(Cl)c3)c2cc1OC
> 10	COc1cc2ncnc(Oc3ccc(NC(=O)Nc4ccc(F)c(Cl)c4)cc3)c2cc1OC
> 10	CCOC(=O)Nc1ccc(Nc2ncnc3cc(OCCN(CC)CC)c(OC)cc23)cc1Cl
> 10	COc1cc2ncnc(Nc3ccc(NC(=O)Nc4ccccc4)cc3)c2cc1OC
> 10	CCCCC(=O)Nc1ccc(Nc2ncnc3cc(OC)c(OC)cc23)cc1C
> 10	COc1cc2ncnc(Oc3ccc(NC(=O)Nc4ccc5ccccc5c4)cc3)c2cc1OC
> 10	CCCCOc1cc2c(Nc3ccc(NC(=O)OCC)c(C)c3)ncnc2cc1OCCN(CC)CC
